Assay results from patent publication EP3020398A1, “Compounds and formulations for reducing scarring” (NITTO DENKO CORPORATION, priority 2014, dated 2016).

Legend:
[1] = tested on: full-thickness skin wounds; experiment: Scar index analysis (H&E histology) in mouse excisional wound model; assay type: in vivo, Mice; conditions: for scar index: topical, 5 daily treatments, harvest after 14 days
Description: The mouse model used here can be considered one of the simplest and standard murine models for investigating scar formation and wound healing.
Mice were weighed and then anaesthetized with 5% isoflurane in air for induction and then administered 2.5-3% of isoflurane in air for the remainder of the procedure. The animals were administered Tramal (Tramadol) intraperitoneally for analgesia at a 0.1 mg/kg dose. Before surgery the back of the mice was shaved and disinfected with isobetadine soap, rinsed with water and then swabbed with iodium alcohol.
Four full-thickness skin wounds were performed by cutting the folded skin on the back of the mice with a 7.5 mm x 3 mm elliptical biopsy punch (Elliptical Excisional Instrument, Acuderm Inc.). The skin on the back was raised and folded at the level of the vertebral column by using the thumb and the index finger. The folded skin was then placed on a wood tongue depressor with the animal laying on one side and two wounds were performed through the folded skin by using an elliptical biopsy punch (Elliptical Excisional Instrument, Acuderm Inc.), resulting in four wounds on the back skin: two on the right of the vertebral column and two on the left (Figure 1). The epidermis, the dermis and the fat tissue in the wound was carefully removed without touching other tissues. The wounds were then immediately treated with topical application of Composition 1 (Tv - vehicle), Composition 2 (T1 - 1 µM Lipoxin A4), or Composition 3 (T2 - 100 µM Lipoxin A4). The position of the wounds that were treated with active agent (T1 or T2) or treated with vehicle (Tv) was randomised. The wound site was then covered with OP-Film (Somed International, the Netherlands). The borders were then fixed with cyanoacrylate glue (Loctite).
The mice were allowed to recover from the surgical preparation in a clean cage with fresh bedding and under a heating lamp. To avoid possible contamination the mice were placed in individual cages containing a cellulose bed that was changed every 24 hours. Single caging avoids other mice from detaching the adhesive patches.
The treatment was repeated at the day 1, 2, 3 and 4 post-surgery for a total of 5 treatments in the first 5 days of healing. At each time point the mice were briefly anaesthetized with isoflurane and a new dose of ointment was injected through the film onto the wound, after which the animal was left to recover. At day 5 all films were removed.
After 14 days the mice were sacrificed under isoflurane anaesthesia by cervical dislocation to harvest the regenerated tissue. Skin samples were taken. The back of the mouse was carefully shaved paying careful attention to not touch the wound area. […]
The extent of scarring was measured in accordance with the procedure set out by Khorasani et al. (2011). […]

[2] = tested on: full-thickness skin wounds; experiment: Collagen content and organisation (picrosirius red, bright-field and polarised light image analysis) in mouse excisional wound model; assay type: in vivo, Mice; conditions: wounds treated versus vehicle; Fig. 5
Description: Four full-thickness skin wounds were performed by cutting the folded skin on the back of the mice with a 7.5 mm x 3 mm elliptical biopsy punch (Elliptical Excisional Instrument, Acuderm Inc.). The skin on the back was raised and folded at the level of the vertebral column by using the thumb and the index finger. The folded skin was then placed on a wood tongue depressor with the animal laying on one side and two wounds were performed through the folded skin by using an elliptical biopsy punch (Elliptical Excisional Instrument, Acuderm Inc.), resulting in four wounds on the back skin: two on the right of the vertebral column and two on the left (Figure 1). […]
Collagen content and organisation were assessed as published by De Visscher et al. (2007, 2008). […] From this the collagen content and organisation can be measured according to the following method.
The total area (At) of the region of interest (ROI) and the area of the red stained material within that area (Ar) on the bright-field image. On the polarized light image, the area of the red illuminated bundles (Ab) is measured. The collagen density and organized collagen are calculated by the following formulae: Collagen density: (Ar/At) × 100 [formula] […]
Both are expressed as a percentage: collagen density as a percentage of the total area and organized collagen as a percentage of the collagen area.

Compound: CCCCC[C@H](O)/C=C/C=C\C=C\C=C\[C@@H](O)[C@@H](O)CCCC(=O)O [Lipoxin A4]
- scar index ([1]; 1 µM Lipoxin A4 treatment, Figure 4): 905 µm
- scar index ([1]; 100 µM Lipoxin A4 treatment, Figure 4): 511 µm
- lower scarring than wounds treated with Control (quantitative scar index analysis) ([1]; Figure 3, n=5, p<0.008): 49%
- scar index ([1]; Pooled Lipoxin A4 treatment, Figure 3, p=0.008 vs vehicle (Vehicle 1478 ± 334)): 748 µm
- Collagen content (in words, versus vehicle) [2]: Lower collagen content was observed in wounds treated with vehicle
- Collagen organisation (in words, versus vehicle) [2]: increased values
